Test results published in the supplement of paper PMC11281043.

Tests used:
Conditions in all cases: exposure: 6-8 hpf to 5 dpf, scored at 6 dpf
Danio rerio embryo/larva [1] = assay: max % larvae with edema across tested concentrations; higher = more toxic; extreme values may be limits of the assay
Danio rerio embryo/larva [2] = assay: max % larvae with uninflated swim bladder across tested concentrations; higher = more toxic; extreme values may be limits of the assay
Danio rerio embryo/larva [3] = assay: max % larvae with abnormal position across tested concentrations; higher = more toxic; extreme values may be limits of the assay
Danio rerio embryo/larva [4] = assay: max % larvae generally abnormal across tested concentrations; higher = more toxic; extreme values may be limits of the assay
Danio rerio embryo/larva [5] = assay: max % larvae with pigmentation defects across tested concentrations; higher = more toxic
Danio rerio embryo/larva [6] = assay: max % larvae with tail defects across tested concentrations; higher = more toxic; extreme values may be limits of the assay
Danio rerio embryo/larva [7] = assay: BMC general abnormality; higher = less potent
Experimental: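 Zebrafish embryos (with chorion) were exposed from 6-8 hpf to each PFAS (8-point half-log series, top concentration up to 100 uM, 0.4% DMSO, sealed plates, 26 C; n = 6 embryos per concentration), rinsed at 5 dpf and scored at 6 dpf by two blinded observers for mortality, hatching and malformations. Endpoint scores are the % of living larvae affected (dead larvae excluded; […]). Curves were fitted with tcpl (cutoff 16%), and the BMC is the concentration at a benchmark response of 21.6%.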

Danio rerio embryo/larva [8] = assay: max % larvae with spinal defects across tested concentrations; higher = more toxic; extreme values may be limits of the assay
Danio rerio embryo/larva [9] = assay: max % larvae with craniofacial defects across tested concentrations; higher = more toxic; extreme values may be limits of the assay
Danio rerio embryo/larva [10] = assay: max % larvae with blood pooling across tested concentrations; higher = more toxic; extreme values may be limits of the assay

Structure (SMILES)	max % larvae (Danio rerio embryo/larva [1])	max % larvae (Danio rerio embryo/larva [2])	max % larvae (Danio rerio embryo/larva [3])	max % larvae generally abnormal across tested concentrations (Danio rerio embryo/larva [4])	max % larvae (Danio rerio embryo/larva [5])	max % larvae (Danio rerio embryo/larva [6])	BMC general abnormality (Danio rerio embryo/larva [7])	max % larvae (Danio rerio embryo/larva [8])	max % larvae (Danio rerio embryo/larva [9])	max % larvae (Danio rerio embryo/larva [10])
CC(C)(C)C(=O)CC(=O)C(F)(F)C(F)(F)C(F)(F)F [(Heptafluorobutanoyl)pivaloylmethane] (max tested concentration (log10 uM): 2)	66.7%	100%	25%	66.7%	0%	0%	25.6 µM	0%	83.3%	20%
CCNS(=O)(=O)C(F)(F)C(F)(F)C(F)(F)C(F)(F)C(F)(F)C(F)(F)C(F)(F)C(F)(F)F [N-Ethylperfluorooctane sulfonamide] (max tested concentration (log10 uM): 1)	41.7%	83.3%	8.33%	58.3%	0%	0%	2.91 µM	0%	8.33%	16.7%
CNS(=O)(=O)C(F)(F)C(F)(F)C(F)(F)C(F)(F)C(F)(F)C(F)(F)C(F)(F)C(F)(F)F [N-Methylperfluorooctanesulfonamide] (max tested concentration (log10 uM): 2)	36.4%	90.9%	8.33%	50%	0%	0%	0.968 µM	0%	18.2%	0%
FC(F)(I)C(F)(F)C(F)(F)C(F)(F)I [Perfluoro-1,4-diiodobutane] (max tested concentration (log10 uM): 2)	58.3%	66.7%	16.7%	58.3%	0%	20.8%	20.6 µM	16.7%	50%	20%
O=C(O)C(F)(F)OC(F)(F)C(F)(F)OC(F)(F)C(F)(F)OC(F)(F)C(F)(F)C(F)(F)C(F)(F)F [Perfluoro-3,6,9-trioxatridecanoic acid] (max tested concentration (log10 uM): 1)	50%	100%	50%	50%	0%	0%	1.51 µM	0%	0%	16.7%
O=C(O)C(F)(F)C(F)(F)C(F)(F)C(F)(F)C(F)(F)C(F)(F)C(F)(F)C(F)(F)C(F)(F)F [Perfluorodecanoic acid] (max tested concentration (log10 uM): 1.47712)	50%	100%	0%	50%	0%	0%	11.2 µM	0%	0%	0%
NS(=O)(=O)C(F)(F)C(F)(F)C(F)(F)C(F)(F)C(F)(F)C(F)(F)F [Perfluorohexanesulfonamide] (max tested concentration (log10 uM): 0.477121)	85%	100%	30%	85%	0%	10%	1.66 µM	5%	70%	0%
O=C(O)C(F)(F)C(F)(F)C(F)(F)C(F)(F)C(F)(F)C(F)(F)C(F)(F)C(F)(F)F [Perfluorononanoic acid] (max tested concentration (log10 uM): 2)	75%	100%	37.5%	75%	0%	50%	28 µM	25%	100%	16.7%
O=C(Cl)C(F)(F)C(F)(F)C(F)(F)C(F)(F)C(F)(F)C(F)(F)C(F)(F)C(F)(F)F [Perfluorononanoyl chloride] (max tested concentration (log10 uM): 1.47712)	16.7%	50%	4.17%	29.2%	0%	0%	13.1 µM	0%	0%	16.7%
NS(=O)(=O)C(F)(F)C(F)(F)C(F)(F)C(F)(F)C(F)(F)C(F)(F)C(F)(F)C(F)(F)F [Perfluorooctanesulfonamide] (max tested concentration (log10 uM): 0)	37.5%	50%	8.33%	41.7%	0%	0%	0.381 µM	0%	8.33%	16.7%
O=S(=O)(O)C(F)(F)C(F)(F)C(F)(F)C(F)(F)C(F)(F)C(F)(F)C(F)(F)C(F)(F)F [Perfluorooctanesulfonic acid] (max tested concentration (log10 uM): 1)	43.8%	62.5%	25%	75%	0%	18.8%	7.82 µM	6.25%	50%	0%
OC(C(F)(F)F)(C(F)(F)F)C(O)(C(F)(F)F)C(F)(F)F [Perfluoropinacol] (max tested concentration (log10 uM): 0.477121)	50%	100%	0%	50%	0%	0%	2.52 µM	0%	50%	0%
